# Experimental data from the supplement of paper PMC10307832.
# Compound: CN(C)C[C@@H]1CCn2cc(c3ccccc32)C2=C(C(=O)NC2=O)c2cn(c3ccccc23)CCO1 [Ruboxistaurin]
# Assay: relative viability (nuclei count vs DMSO), 5 days (fraction); higher = more cells survive
# Method in brief: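 In 1536-well plates, lung cancer cell lines rested overnight at 37 °C before five library-drug doses (not always all listed), √10 apart, were pinned onto vehicle-anchored plates. Nuclei were counted with MetaXpress from 4× Hoechst images taken after 5 days without medium change. Viability compares treated-well with vehicle-well nuclei as a median over plates, and plates needed control CV below 25% plus at least one doubling to pass.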
Cell Line,relative viability (0.08 µM),relative viability (0.8 µM),relative viability (2.53 µM),relative viability (8 µM)
201T,1.03,0.98,1.01,0.973
A549,1.05,0.9,1,0.83
A-427,0.997,0.871,0.924,0.821
ABC-1,1.16,0.951,1.16,0.89
BEN,1.05,0.902,0.877,0.857
CAL-12T,1.15,0.879,1.03,1.09
COR-L23,1.1,0.955,1.14,1.17
COR-L 105,1.08,0.803,0.949,0.782
ChaGo-K-1,1.06,0.976,1.06,0.961
EKVX,1.06,0.928,1.02,0.884
EMC-BAC-2,1.05,0.957,0.95,0.84
EPLC-272H,1.12,0.794,0.928,0.857
H3255,1.09,0.919,0.99,0.99
HARA,0.978,0.918,0.976,0.929
HCC-15,1.06,0.953,1.07,1.04
HCC-44,1.01,0.979,1.01,1.07
HCC-78,1.11,0.996,1.1,0.949
HCC-366,0.989,0.95,1.02,1.05
HCC-827,1.05,1.03,1.09,1.09

Cell Line,relative viability (0.08 µM),relative viability (0.8 µM),relative viability (2.53 µM),relative viability (8 µM)
HOP-62,1.05,1.02,1.11,1.16
IA-LM,0.959,0.79,0.981,1
LC-2-ad,1.06,0.935,1.04,1.08
LCLC-97TM1,0.905,0.948,1.08,0.906
LCLC-103H,0.998,0.887,0.894,0.841
LK-2,0.952,1,1.12,0.833
LOU-NH91,1.09,0.939,1.01,0.927
LU99A,0.956,0.858,1.04,0.852
LXF-289,1.02,0.999,0.991,1.06
NCI-H23,0.974,0.892,1.03,0.886
NCI-H322M,1.02,0.863,0.895,0.551
NCI-H358,1.14,0.881,0.984,0.712
NCI-H441,1.14,0.936,1.19,0.947
NCI-H460,1.01,0.98,1.04,1.02
NCI-H520,1.05,0.901,1.02,0.779
NCI-H522,0.949,1.05,0.869,0.892
NCI-H596,0.979,0.864,1.02,0.867
NCI-H647,1.1,0.898,1,0.978
NCI-H650,1.19,0.864,0.98,1.02
